Experimental data taken from patent US10844404B2, “Engineered microorgansims and methods for improved crotyl alcohol production” (priority 2015, dated 2020).

Assays:
[1] = test system: E. coli ATCC 8739 C strains; assay: Crotyl alcohol tolerance study (Bioscreen growth curves, turbidity OD420-580); format: cell-based; details: 138 mM crotyl alcohol, FIG. 5B
Procedure: (§1) E. coli Str. K-12 substr. MG1655 strains 48 (wildtype) and 3-FEDB with multiple deletions (ΔyahkΔadhPΔyqhDΔadhE); and E. coli ATCC 8739 C strains (wildtype) and its variants 3-FISC (ΔadhE), 3-GAEB (ΔadhEΔyqhD), 3-GBOG (ΔadhEΔyqhDΔadhP), and 3-GDOB (ΔadhEΔyqhDΔadhPΔyahK) were struck for single colonies on LB agar from a glycerol freezer stock. Four single colonies per strain were picked and inoculated into 1 mL LB+55.7 mM glucose in deep well 96 well plates and grown at 37° C. overnight (16-20 hours). The optical density of the overnight culture was taken and cells were normalized to OD600=1 and spun down. Cells were resuspended in 1 mL of M9 minimal media+11.1 mM glucose. Cells were then spun down and washed again in 1 mL M9+11.1 mM glucose. Bioscreen honeycomb 2 plates (Cat. No. 9502550) were filled with 198 μL M9+11.1 mM glucose or M9+11.1 mM glucose+138 mM crotyl alcohol (Sigma-Aldrich). 2 μL washed cells were added to each well at N=4. Bioscreen honeycomb 2 plates were loaded into a bioscreen C MBR (Oy Growth Curves Ab Ltd) machine, an incubator system set to read turbidity at OD420-580 every 15 minutes at 37° C. For growth curve data, see FIG. 4A (E. coli Str. K-12 substr. MG1655 strains) and FIG. 4B (E. coli ATCC 8739 C variant strains).

[2] = test system: E. coli Str. K-12 substr. MG1655 strains; assay: as above; format: cell-based; details: 138 mM crotyl alcohol, M9+11.1 mM glucose, 37° C., FIG. 4B
Procedure: as §1

Compound: CC=CCO [crotyl alcohol, but-2-en-1-ol]
- growth in the presence of crotyl alcohol ([1]; M9+11.1 mM glucose, 37° C., wild-type or parental strain): growth is inhibited
- growth in the presence of crotyl alcohol ([1]; strain 3-FIDC (ΔadhE)): inhibited
- growth in the presence of crotyl alcohol ([1]; strain 3-GAEB (ΔadhEΔyqhD)): inhibited
- growth in the presence of crotyl alcohol ([1]; strain 3-GBOB (ΔadhEΔyqhDΔadhP)): while showing an initial lag grew on crotyl alcohol
- growth in the presence of crotyl alcohol ([1]; strain 3-GBOG (ΔyahKΔadhPΔyqhDΔadhE)): while showing an initial lag grew on crotyl alcohol
- growth in the presence of crotyl alcohol ([2]; strain 3-FEDB (ΔyahKΔadhPΔyqhDΔadhE)): while showing an initial lag grew on crotyl alcohol
- growth in the presence of crotyl alcohol ([2]; wild-type or parental strain (48)): growth is inhibited
